Assay results taken from patent publication US9452195B2, “Use of CHEC peptides to treat neurological and cardiovascular diseases and disorders” (Drexel University, priority 2010, dated 2016).

Key:
phospholipase A2 (sPLA2) = conditions: statement referring to earlier patents and applications; cited from earlier work
neuron = conditions: cited from earlier work
[1] = system: hippocampal neuronal activity in kainic acid-treated rats; assay: Multiunit activity in CA1 cell field of hippocampus of kainic acid treated rats; type: in vivo, rat; conditions: CHEC-9 1 mg/kg orally 40 min before KA 10 mg/kg IP
Description: FIG. 1, is a graph depicting multiunit activity recorded from the CA1 cell field of the hippocampus of awake, freely moving kainic acid-treated rats that have been treated either with CHEC-9 or vehicle. Multiunit activity is presented as impulses recorded per second and provided as a percentage of baseline activity measured prior to seizure induction.
Rats were implanted with a multichannel electrode bundle placed in the CA1 cell field of the hippocampus one week prior to the experiment. Baseline hippocampal neuronal activity (impulses per second) was collected during a 30 minute control period. After 30 minutes of baseline neuronal activity was collected, either CHEC-9 (1 mg/kg) or vehicle was administered orally 40 min prior to IP administration of kainic acid (10 mg/kg). The duration of the KA administration varied. Neuronal activity in response to KA administration is presented as % of baseline activity (FIG. 1).

[2] = system: KA induced motor seizures in rats; assay: Kainic acid (KA) induced motor seizures in rats, graded by Racine scale; type: in vivo, rat; parameters: key to Max Seizure Stage: 1: hypoactivity, mouth and facial automatism; 2: head nodding and mastication; 3: forelimb clonus without rearing; 4: bilateral forelimb clonus and rearing; 5: rearing and loss of posture; Status epilepticus: stage 4-5 lasting for 30 min,
Procedure: Kainic acid (KA) was administered intraperitoneal (IP) to rats at doses ranging from […]. Rats age postnatal day (P) 12-15 were administered 2 mg/kg KA. Rats age P35-40 were administered 6 mg/kg KA. The KA was delivered in a constant volume of phosphate buffer (5 ml/kg) and reliably produced motor seizure activity.
Following IP administration of KA, rats were video-recorded for 3 hours, and then daily for 3 hours. The video recordings are later scored blind. The severity and latency of seizures is graded for P35 rats by a classical scale shown in Table 1 (Racine, 1972, Electroencephalog. Clin. Neurophysiol. 32:281-294).
Rats (250-300 g) are done in pairs and administered either a control peptide/vehicle or CHEC peptide in vehicle at various intervals pre- or post KA treatment. Control or CHEC peptide are administered either 4, 2 or 0.5 hours pre-KA or 0.25, and 0.5 hrs post-KA. The effects of CHEC-7 and CHEC-9 are compared because the peptides have different pharmakinetic profiles in rat.
Forty minutes prior to KA administration, the rats were administered either control peptide or CHEC-9 at the indicated dosages and routes of administration. The resulting motor seizures were graded as described elsewhere herein. […] In one set of experiments, rats were pre-fed lecithin or phosphatidylcholine prior to administering the KA.

## CAHAQAESC [CHEC-9 peptide variant]
Phospholipase A2 (sPLA2)
  inhibition of phospholipase A2 / sPLA2: inhibit phospholipase A2
neuron
  neuron protective activity: also has neuron protective activity

## CHEASQC [CHEC-7]
Phospholipase A2 (sPLA2)
  inhibition of phospholipase A2 / sPLA2: even more potent as a sPLA2 inhibitor than CHEC-9

## CHEASAAQC [CHEC-9]
[1]; vehicle rat reached status epilepticus
  seizure symptoms by the end of the experiment: no obvious symptoms
[1]; versus vehicle
  effect of KA on neuronal activity (multiunit activity, % of baseline): much smaller effect of KA on neuronal activity
[2]; individual rat, C9 0.5 mg/kg sc 40 min before KA 6 mg/kg ip
  Max Seizure Stage: 2
[2]; individual rat, C9 1.0 mg/kg po 40 min before KA 5 mg/kg ip
  Max Seizure Stage: 1
[2]; individual rats, C9 0.5 mg/kg sc 40 min before KA 5 mg/kg ip
  Max Seizure Stage: 1
[2]; individual rats, C9 1.0 mg/kg po 40 min before KA 10 mg/kg ip, female rats
  Max Seizure Stage: 3
[2]; individual rats, C9 1.0 mg/kg po 40 min before KA 10 mg/kg ip, male rats
  Max Seizure Stage: 1
[2]; rats 250-300 g, peptide given 40 min before KA
  likelihood of severe motor seizures versus vehicle control: vehicle control were more likely to exhibit severe motor seizures than rats that were administered CHEC-9
Phospholipase A2 (sPLA2)
  inhibition of phospholipase A2 / sPLA2: inhibit phospholipase A2
